Assay results: patent US7485324B2, “Use of exogenous gaseous nitric oxide in the treatment and disinfection of biofilms” (Pulmonox Technologies Corporation, priority 2003, dated 2009)

Assays:
B. cenocepacia C8963 = test: Biofilm formation in 96-well microtiter dish assay (crystal violet staining, A595); type: cell-based, Burkholderia cenocepacia; details: for C8963 biofilm growth in the presence of gNO compared with absence of gNO: 200 ppm gNO; for Average A595 (C8 + NO), biofilm formation: experiment 2
Procedure: (§1) Objective: To determine if exposure to gaseous nitric oxide (gNO) affects the ability of B. cenocepacia C8963 to form a biofilm in a 96-well microtiter dish assay.
(§2) Methods: B. cenocepacia C8963, a non-mucoid isolate from a cystic fibrosis (CF) patient, and C9343, a mucoid isolate from the same patient, were spotted on Luria Broth agar and grown at 37° C. overnight. Luria broth containing 0.5% (w/v) casamino acids was dispensed into 96-well polypropylene microtiter dishes (100 μl per well) and the wells inoculated with the C8963 or C9343 using a pin-inoculation device. Blank wells were not inoculated. Dishes were incubated in a humidified, closed plastic container for 24 hours at 37° C. (experiment 1) or in the outer chamber of the matrix incubator (a humidified incubator with controlled air flow) for 27 hours at 37° C. (experiment 2). At 24 hours (experiment 1) or 27 hours (experiment 2), one dish was processed for staining of the bacterial biofilms. The remaining dishes were incubated in the inner treatment arms of the matrix incubator at 37° C. in the presence or absence of 200 ppm gNO. One dish for each of the conditions (+gNO or −gNO) was processed for biofilm staining at 32, 36, and 48 hours.
(§3) To stain biofilm growth, planktonic bacteria were removed from the microtitre dishes by discarding media and cells. Biofilms were washed to remove remaining non-adherent bacteria in two successive tap water washes. Water was shaken from the wells and the dishes inverted and tapped vigorously on a stack of paper towels to remove as much water as possible. Adherent growth was stained by adding 125 μlof a 0.1% (w/v) solution of crystal violet to each well and incubating at room temperature for 15 minutes. Crystal violet was discarded as for the previous washes and excess stain was removed in three successive tap-water washes. Excess water was removed by vigorous tapping as before and the stained dishes allowed to air dry.
(§4) To quantitate biofilm formation, 200 μl of 95% ethanol was added to each well, incubated at room temperature for 15 minutes, and 125 μl from each well was removed to a clean flat-bottomed polystyrene microtitre dish. The absorbance at 595 nm was read on a Bio-Rad Model 3550 Microplate Reader. The average reading from “Blank” (uninoculated) wells containing only media was subtracted from each “Test” well. The [Test-Blank] averages and standard errors of the mean (SEM) were calculated for each condition and time.

B. cenocepacia C9343 = test: as above; type: cell-based, Burkholderia cenocepacia; details: 200 ppm gNO; experiment 1
Procedure: as §1, §2, §3, §4

SMILES: [N]=O [gNO, nitric oxide]
- Effect on biofilm formation of C8963 (B. cenocepacia C8963; 200 ppm final concentration of gNO): inhibited biofilm formation
- C8963 biofilm growth in the presence of gNO compared with absence of gNO (B. cenocepacia C8963; at 32 hours, experiments 1 and 2): greater than in the absence of gNO
- C8963 biofilm growth in the presence of gNO compared with absence of gNO (B. cenocepacia C8963; by 36 hours, experiments 1 and 2): significantly lower than in the absence of gNO
- C8963 biofilm growth in the presence of gNO compared with absence of gNO (B. cenocepacia C8963; remaining time points up to 48 hours, both experiments): consistently lower
- Average A595 (C8 + NO), biofilm formation (B. cenocepacia C8963; time 27 h, after 27 hours in air, before exposure to 200 ppm gNO): 0.076
- Average A595 (C8 + NO), biofilm formation (B. cenocepacia C8963; time 32 h, 200 ppm gNO from 27 h, 37° C.): 0.282
- Average A595 (C8 + NO), biofilm formation (B. cenocepacia C8963; time 36 h, 200 ppm gNO from 27 h, 37° C.): 0.252
- Average A595 (C8 + NO), biofilm formation (B. cenocepacia C8963; time 48 h, 200 ppm gNO from 27 h, 37° C.): 0.334
- Effect on biofilm growth of C8963 (B. cenocepacia C8963; low initial concentrations of gNO): enhanced biofilm growth
- Induction of biofilm formation by mucoid C9343 (B. cenocepacia C9343): did not induce biofilm formation
